Results on one compound are retold here after patent US7553837B2, “Phenylazole compounds production process and antioxidants” (Nippon Soda Co., Ltd., priority 2003, dated 2009).

Data set [1] concerns 66 kDa protein in the retina. In words: 66 kDa protein increase inhibitory action in retina of rats irradiated with UV-A. Type of data set: in vivo. The note with it: Wistar male rats, 10 mg/kg, p.o., UV-A irradiation, retina 48 hours after irradiation, N = 3. The procedure:
An action for inhibition of an increase in 66 kDa protein in the retina of rats irradiated with ultraviolet light of the compounds of the present invention was evaluated. To Wistar male rats (7 to 9 weeks old), a solution or suspension prepared by dissolving or suspending each of test compounds in a 0.1N hydrochloric acid solution or a 1% poly oxy ethylene hydrogenated castor oil (NIKKOL HCO-60) solution was orally administered. After 30 minutes, right eye was irradiated with UV-A (12 mW/cm^2) using a UV spot light source for 30 minutes. Left eye was not irradiated (control). During irradiation with UV-A and 2 hours before and after irradiation, rats were bred under an atmosphere where room light is screened. 48 hours after irradiation, the retina was separated. In the same manner as in Example 21, a 5% homogenate solution was prepared. Regarding a change in retinal protein, SDS-polyacrylamide electrophoresis was carried out according to the process of Lammli (Nature, […], 680-685, 1970). […] Then, the specimen was decolored with ethanol:acetic acid:water (25:8:65) and the 66 kDa protein after migration was analyzed by a densitograph. The amount of the protein in the specimen was determined by a Lowry process.

The next data set concerns the target T1, 5-lipoxygenase (5-LO) (Homo sapiens, UniProt P09917).
T1 construct: human peripheral blood mononuclear cells and each of test compounds dissolved in DMSO (final concentration: 1%) were preincubated; endogenous in cells; host or cells: human peripheral blood mononuclear cells
T1 sequence (P09917 1-674): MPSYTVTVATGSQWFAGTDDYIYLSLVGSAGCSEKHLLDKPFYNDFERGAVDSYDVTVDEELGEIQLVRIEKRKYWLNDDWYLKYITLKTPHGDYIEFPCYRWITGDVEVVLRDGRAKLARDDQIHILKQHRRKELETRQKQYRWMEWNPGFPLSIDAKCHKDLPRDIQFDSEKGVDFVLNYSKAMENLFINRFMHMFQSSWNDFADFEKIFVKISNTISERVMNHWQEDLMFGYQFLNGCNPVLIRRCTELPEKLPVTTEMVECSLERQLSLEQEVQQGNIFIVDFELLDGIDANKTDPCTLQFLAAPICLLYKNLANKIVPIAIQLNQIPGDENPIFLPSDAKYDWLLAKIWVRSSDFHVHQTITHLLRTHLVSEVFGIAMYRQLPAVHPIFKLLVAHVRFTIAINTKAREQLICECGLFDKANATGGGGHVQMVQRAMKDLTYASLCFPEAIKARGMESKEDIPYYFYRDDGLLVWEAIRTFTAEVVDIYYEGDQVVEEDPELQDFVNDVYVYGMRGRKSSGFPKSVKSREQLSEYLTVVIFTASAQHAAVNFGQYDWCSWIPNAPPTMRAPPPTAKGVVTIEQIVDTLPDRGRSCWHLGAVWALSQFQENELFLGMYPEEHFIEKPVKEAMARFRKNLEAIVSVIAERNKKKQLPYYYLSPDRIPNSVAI
In words: 5-lipoxygenase (5-LO) inhibitory activity, leukotriene B4 production in human peripheral blood mononuclear cells. The conditions noted are these: human peripheral blood mononuclear cells, A23187, leukotriene B4 production. The format is cell-based. The procedure: A 5-LO inhibitory activity was measured by a partially modified process of a process of Carter et al. (Carter G. W, et al, J. Pharmacol. Exp. Ther.: 256, 929-37, 1991). That is, human peripheral blood mononuclear cells and each of test compounds dissolved in DMSO (final concentration: 1%) were preincubated (37° C., 15 minutes) in a Hanks' balanced salt solution and 30 μM A23187 was further added, followed by incubation (37° C., 30 minutes). The amount of leukotriene B4 produced as a result of incubation was determined by enzyme immunoassay and a 50% production inhibitory concentration (μM) against 5-LO of each test compound was calculated.

Data set [2] concerns the target T2, 15-LO obtained from reticulocyte of rabbit (Oryctolagus cuniculus, UniProt P12530).
T2 construct: 15-LO obtained from reticulocyte of rabbit; from tissue; host or cells: rabbit reticulocytes
T2 sequence (P12530 1-663): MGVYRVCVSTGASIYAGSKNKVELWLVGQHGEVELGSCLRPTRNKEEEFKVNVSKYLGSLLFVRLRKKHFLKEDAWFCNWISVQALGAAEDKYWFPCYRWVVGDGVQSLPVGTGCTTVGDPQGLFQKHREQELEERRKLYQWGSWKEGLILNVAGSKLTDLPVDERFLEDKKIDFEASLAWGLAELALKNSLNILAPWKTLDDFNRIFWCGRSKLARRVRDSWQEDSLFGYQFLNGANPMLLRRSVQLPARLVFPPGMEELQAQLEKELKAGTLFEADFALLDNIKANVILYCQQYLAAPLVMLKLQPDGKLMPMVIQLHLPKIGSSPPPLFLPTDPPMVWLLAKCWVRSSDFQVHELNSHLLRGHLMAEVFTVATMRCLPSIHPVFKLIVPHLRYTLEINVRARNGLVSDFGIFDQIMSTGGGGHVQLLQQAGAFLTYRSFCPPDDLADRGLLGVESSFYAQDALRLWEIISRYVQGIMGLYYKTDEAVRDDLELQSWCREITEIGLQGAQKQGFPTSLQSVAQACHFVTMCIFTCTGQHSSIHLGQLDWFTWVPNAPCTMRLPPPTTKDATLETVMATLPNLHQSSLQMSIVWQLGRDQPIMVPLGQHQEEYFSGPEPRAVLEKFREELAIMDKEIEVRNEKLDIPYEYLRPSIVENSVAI
In words: 15-lipoxygenase (15-LO) inhibitory activity, 15-HETE production. Type of data set: biochemical. The conditions noted are these: 15-LO from reticulocyte of rabbit, linoleic acid. The procedure:
A 15-LO inhibitory activity was measured by a partially modified process of a process of Auerbach et al. (Auerbach B. J, et al., Anal. Biochem.: 201, 375-80, 1992). That is, 15-LO obtained from reticulocyte of rabbit and each of test compounds dissolved in DMSO (final concentration: 1%) were preincubated (4° C., 15 minutes) in phosphoric acid buffer (pH 7.4) and 256 μM linoleic acid was further added, followed by incubation (4° C., 10 minutes). The amount of 15-HETE produced as a result of incubation was determined by spectrophotometry (OD660nm) and 50% production inhibitory concentration (μM) against 15-LO of each test compound was calculated. Compounds (R-3) and (R-4) (edaravone) of the following formulas were used as a control drug.

Data set [3] can be described thus: Acute oral toxicity, single oral dose, mortality rate after 7 days. The conditions noted are these: mouse, in vivo, male mice, observed for 7 days. The procedure:
A single dose of each of the compounds of the present invention was orally administered to male mice. After observing for 7 days, a mortality rate was determined.

In the case of `Cc1c(C)c2c(c(C)c1N)CC(C)(CN1CCN(c3cccc(-n4ccnc4)c3)CC1)O2` (stereo not shown) [Compound B-1-18], the “66 kDa protein ratio in retina of rats irradiated with ultraviolet light (right eye: irradiated/left eye: non-irradiated)” value in data set [1] worked out at 1.50. The IC50 against 5-lipoxygenase (5-LO) was 2.55 µM; in data set [2], 1.54 µM. Also, in data set [3], the LD50 at 7 days is above 1000 mg/kg.

Usually IC50 stands for the midpoint of a concentration-inhibition curve. Read a high IC50 as a need for much substance. In general, LD50 refers to the dose at which mortality reaches 50%.
